Results from patent US20250214969A1, “PROTEIN DEGRADERS AND USES THEREOF” (Kymera Therapeutics, Inc., priority 2022, published 2025).

Columns and labels:
[1] = biological target: T1, truncated His-MBP-Tev-KLHDC2 (residues 1-363) (Homo sapiens, UniProt Q9Y2U9); assay: KLHDC2 HTRF binding assay; settings: 1 nM KLHDC2 (residues 1-363), fluorescein-labeled diglycine peptide probe
T1 construct: truncated His -MBP-Tev-KLHDC2 (residues 1-363) purified from E. coli; made in house; host or cells: E. coli
T1 sequence (Q9Y2U9 1-363): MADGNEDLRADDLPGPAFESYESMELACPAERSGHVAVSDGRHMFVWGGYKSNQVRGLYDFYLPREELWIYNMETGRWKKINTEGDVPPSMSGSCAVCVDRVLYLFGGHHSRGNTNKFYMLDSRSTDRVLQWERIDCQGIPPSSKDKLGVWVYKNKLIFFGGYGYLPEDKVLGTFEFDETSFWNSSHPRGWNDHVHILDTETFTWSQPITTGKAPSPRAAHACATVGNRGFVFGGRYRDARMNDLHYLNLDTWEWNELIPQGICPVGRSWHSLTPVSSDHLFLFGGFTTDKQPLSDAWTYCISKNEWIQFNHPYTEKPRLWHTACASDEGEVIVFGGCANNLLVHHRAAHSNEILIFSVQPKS
Description: HTRF binding assays were performed using 1 nM truncated His -MBP-Tev-KLHDC2 (residues 1-363) purified from E. coli, 0.2 nM terbium-anti-His antibody (CisBio), 1 nM fluorescein-labeled diglycine peptide probe, and test compounds in assay buffer consisting of 50 mM HEPES-Na pH 7.5, 100 mM NaCl, 2 mM DTT, 0.005% Tween-20 with a final volume of 20 uL. Compound stocks were dissolved at 10 mM in 100% DMSO and 11 point titration with 3 fold serial dilution was performed in white, opaque 384 well microplates. Reaction plates were incubated at room temperature for 30 minutes. Plates were centrifuged at low rpm for 5 mins, and the ratio of fluorescence intensities were measured at emission wavelengths for fluorescein acceptor (520 nm) and terbium donor (495 nm) on Envision Plate reader. % Inhibition was calculated from the 520/495 ratio generated by the no protein controls for 100% inhibition and DMSO only reactions for 0l % inhibition.

[2] = biological target: T1, truncated His-MBP-Tev-KLHDC2 (residues 1-363); assay: KLHDC2 FP competition binding assay; settings: 15 nM KLHDC2 (residues 1-363), 10 nM fluorescein-labeled diglycine peptide probe, read-out: KLHDC2 binding Human FP: average external IC50

Row | Structure (SMILES) | IC50 [1] [µM] | IC50 [2] [µM]
1 | N#Cc1ccc(OCC(=O)Nc2ccc(=O)n(CC(=O)O)c2)cc1 [I-270] | > 5 | > 5
2 | O=C(O)Cn1cc(N2C[C@@]3(CCCN(c4cccnc4)C3)CC2=O)ccc1=O [I-17] | > 5 | > 5
3 | NCCCCCCc1cncc(-c2cccc(C(=O)Nc3ccc(=O)n(CC(=O)O)c3)c2)c1 [I-167] | 0.05 to 0.5 | 0.5 to 5
4 | COc1cc(-c2ccc(C)cc2)ccc1C(=O)Nc1ccc(=O)n(CC(=O)O)c1 [I-135] | 0.5 to 5 | > 5
5 | O=C(O)Cn1cc(N2CCCCC2)ccc1=O [I-357] | > 5 | > 5
6 | CC1(C)CCc2c(C(=O)Nc3ccc(=O)n(CC(=O)O)c3)csc2C1 [I-234] | 0.5 to 5 | > 5
7 | COc1ccc(-c2cccc(C)c2)cc1CC(=O)O [I-353] | > 5 | > 5
8 | COc1ccc(-c2ccccc2C)cc1CC(=O)O [I-352] | > 5 | > 5
9 | O=C(O)Cn1cc(N2CCc3ccc(-c4cccnc4)cc3C2=O)ccc1=O [I-89] | 0.05 to 0.5 | 0.5 to 5
10 | O=C(O)Cn1cc(-c2ccc(C(=O)N3CCOCC3)cc2)ccc1=O [I-392] | > 5 | > 5
11 | CNc1cncc(N2CCC[C@H](C(=O)Nc3ccc(F)c(CC(=O)O)c3)C2)c1 [I-19] | 0.05 to 0.5 | 0.5 to 5
12 | Cc1cc(-c2ccc(=O)n(CC(=O)O)c2)ccc1F [I-376] | > 5 | > 5
13 | COc1nc2ccccc2cc1C(=O)Nc1ccc(=O)n(CC(=O)O)c1 [I-186] | > 5 | > 5
14 | Cc1ccccc1OCC(=O)Nc1ccc(=O)n(CC(=O)O)c1 [I-266] | > 5 | > 5
15 | O=C(O)CN1CC(NC(=O)c2ccccc2)CCC1=O (stereo not drawn) [I-271] | > 5 | > 5
16 | COc1cccc(OCC(=O)Nc2ccc(=O)n(CC(=O)O)c2)c1 [I-261] | > 5 | > 5
17 | COc1cncc(N2CCC[C@H](C(=O)Nc3ccc(Cl)c(CC(=O)O)c3)C2)c1 [I-20] | 0.05 to 0.5 | 0.5 to 5
18 | N#Cc1cc(=O)n(CC(=O)O)cc1NC(=O)c1cccc(-c2cccnc2)c1 [I-25] | 0.05 to 0.5 | 0.5 to 5

Row | Structure (SMILES) | IC50 [1] [µM] | IC50 [2] [µM]
19 | Cc1cccc(C)c1-c1ccc(=O)n(CC(=O)O)c1 [I-404] | > 5 | > 5
20 | NCCCCCCc1cccc2c(-c3cccc(C(=O)Nc4ccc(=O)n(CC(=O)O)c4)c3)cncc12 [I-110] | 0.05 to 0.5 | > 5
21 | Cc1ccc(-c2cccc(C(=O)Nc3ccc(=O)n(CC(=O)O)c3)c2)cc1 [I-275] | 0.5 to 5 | > 5
22 | O=C(O)Cn1cc(NC(=O)[C@@H]2C[C@H](C(F)(F)F)CN(c3cccnc3)C2)ccc1=O [I-65] | 0.05 to 0.5 | 0.5 to 5
23 | COc1cc(-c2ccc(CCCCCCCCCNC(=O)C[C@@H]3N=C(c4ccc(Cl)cc4)c4c(sc(C)c4C)-n4c(C)nnc43)cc2)ccc1C(=O)Nc1ccc(=O)n(CC(=O)O)c1 [I-470] | 0.5 to 5 | 0.05 to 0.5
24 | CCc1cccc(-c2ccc(=O)n(CC(=O)O)c2)c1 [I-345] | > 5 | > 5
25 | COc1ccc(-c2ccccc2)cc1C(=O)Nc1ccc(=O)n(CC(=O)O)c1 [I-243] | > 5 | > 5
26 | NC(=O)Cn1cc(NC(=O)c2cccc(-c3cncc4ccccc34)c2)ccc1=O [I-122] | > 5 | > 5
27 | Cc1cc(=O)n(CC(=O)O)cc1NC(=O)c1ccccc1 [I-316] | > 5 | > 5
28 | O=C(O)Cn1cc(NC(=O)c2occc2CN2C(=O)Cc3ccccc32)ccc1=O [I-242] | 0.5 to 5 | > 5
29 | O=C(O)Cn1cc(NC(=O)c2cc(-c3cccnc3)c3ccccc3c2)ccc1=O [I-88] | 0.5 to 5 | 0.5 to 5
30 | CCc1ccc(C(=O)Nc2ccc(=O)n(CC(=O)O)c2)cc1-c1cccnc1 [I-181] | 0.5 to 5 | > 5
31 | Cc1ccccc1-c1ccc(O)c(CC(=O)O)c1 [I-336] | > 5 | > 5
32 | O=C(O)Cn1cc(-c2cnc(N3CCOCC3)nc2)ccc1=O [I-361] | > 5 | > 5
33 | CC(C)Cn1cnc2c(C(=O)Nc3ccc(=O)n(CC(=O)O)c3)cccc21 [I-133] | 0.5 to 5 | > 5
34 | O=C(O)Cc1cccc(NC(=O)CCc2cccc(OC3CCCC3)c2)c1 [I-351] | > 5 | > 5
35 | O=C(O)Cn1cc(NC(=O)c2cccc(-c3cncnc3)c2)ccc1=O [I-201] | 0.5 to 5 | 0.5 to 5
36 | NCCCCCCCCCc1ccc2c(-c3cccc(C(=O)Nc4ccc(=O)n(CC(=O)O)c4)c3)cncc2c1 [I-107] | < 0.05 | > 5
